Columns and labels:
[1] = test system: phosphorylated AKT (Ser473); test: Western blot of primary pre-B ALL cells; format: cell-based, human; conditions: GZD824 1μM, IGF-1 10ng/ML, 24 hours
Description: (§1) Figure 6 GZD824 inhibits PI3K/AKT signaling in pre-B ALL cells A. Cells were harvested from PB, SP, and BM of P#2 xenograft mice and cultured with or without 1μM GZD824 for 24h. Bars represent the mean percentages of AnnexinV+ cells in each group. B. Primary pre-B ALL cells from spleen of P#1 xenograft mouse treated with DMSO, GZD824 (1μM), IGF-1 (10ng/ML), or both. Bars represent the mean percentages of AnnexinV+ cells in each group. C. Western blot analysis of NALM6 cells. Cells were treated with DMSO, GZD824 (1μM), or GZD824 (3μM) for 24 hours. Lysates were analyzed with antibodies against IRS1, phosphate AKT, and AKT. D. Western blot analysis of primary pre-B ALL cells. Primary cells treated with GZD824 (1μM), IGF-1 (10ng/ML), or both for 24 hours. Lysates were analyzed with antibodies against Irs1, phosphate AKT, and AKT.
(§2) For Western blot analysis, 30 μg of total protein extracts prepared from NALM6 or primary pre-B ALL cells from SP of PDX mice were separated on SDS-PAGE and transferred to a PVDF membrane (Bio-Rad, Hercules, CA, USA). The following commercially available antibodies and dilutions were used for Western blotting: human anti-STAT3 (ab119352, Abcam, UK), human anti-phospho-STAT3 (Y705) (ab76315, Abcam, UK), human anti-SRC (ab32102, Abcam, UK), human anti-phospho-SRC (Y419) (ab185617, Abcam, UK), human anti-RB (9313, Cell Signaling Technology, MA, USA), human anti-phospho–RB (Ser807/811) (8516, Cell Signaling Technology, MA, USA), human anti-C-myc (13987, Cell Signaling Technology, MA, USA), anti-AKT (pan) (4691P, Cell Signaling Technology, MA, USA), anti-phospho-AKT (Ser473) (4060P, Cell Signaling Technology, MA, USA), anti-IRS-1 (2390S, Cell Signaling Technology, MA, USA), and human anti–β-actin (4970, Cell Signaling Technology, MA, USA). Western blot analysis was performed with cell lines or primary pre-B ALL cells from SP following GZD824 treatment, and signal intensities were normalized to β-actin signals.

IRS1 = test: Western blot of primary pre-B ALL cells; format: cell-based, human; conditions: GZD824 1μM, IGF-1 10ng/ML, 24 hours
Description: as §1, §2

[2] = test system: STAT3 target genes (BCL-XL, CCND1, CDK4, CDKN1A); test: qRT-PCR of STAT3 target genes; format: cell-based, human; conditions: 3 μM, 24 hours, normalized to GAPDH, vs control
Description: Figure 5 GZD824 inhibits the SRC kinase in pre-B ALL cells A-C. Western blot analysis of […]-treated NALM6 cells. Cells were treated with DMSO, GZD824 (1μM), or GZD824 (3μM) for 24 hours. Lysates were analyzed with antibodies to (A) phospho-SRC and SRC; (B) phospho-STAT3 and STAT3; and (C) phospho-Rb, Rb, and C-Myc. D. qRT-PCR products of BCL-XL, CCND1, CDK4, and CCK[…] mRNA were normalized to GAPDH and presented as fold increase or decrease compared to control, 24 hours after treatment with 3 μM GZD824. E. NALM6 cells were treated with GZD824, SRC inhibitor (KX2-391), STAT3 inhibitor (HO-3867), or DMSO for 24 hours. Statistical analysis of Annexin V-positive cells in 3μM of drug treated NALM6 cells. All data from independent experiments are presented as mean ± SEM. Significance values: ^*P<0.05; ^**P<0.01; ^***P<0.001. RNA was extracted using TRIzol reagent (15596-026, Invitrogen, Grand Island, NY, USA), according to the manufacturer's recommended protocol. qRT-PCR was performed using Applied Biosystems StepOne and StepOne Plus Real-Time PCR Systems (Foster City, CA, USA). The experiments were repeated a minimum of three times to confirm the results.

JAK = test: Active-site-dependent competition kinase binding assay (KINOMEscan)
Description: (§3) Kinase assay was performed as previously described. The binding activities of GZD824 were analyzed by KINOME scan system conducted by Ambit Bioscience (CA, USA). Briefly, kinases were tagged with DNA. The ligands were biotinylated and immobilized to streptavidin coated beads. The binding reactions were assembled by incubating DNA-tagged kinases, immobilized ligands, and test compounds in binding reactions (20% SeaBlock, 0.17×PBS, 0.05% tween-20, 6 mM DTT) for 1.0 h at room temperature. The affinity beads were washed with washing buffer (1×PBS, 0.05% Tween-20) first and then elution buffer (1×PBS, 0.05% Tween 20, 0.5μM nonbiotinylated affinity ligands). The kinase concentration in the eluate was determined by quantitative PCR of the DNA tagged to the kinase. The ability of the test compound to bind to the kinase was evaluated with percent control (%) as (test compound signal −positive control signal)/negative control signal−positive control signal) ×100%. Negative control is DMSO control (100% ctrl) and positive control is control compound (0% ctrl).

ABL = target: T1, ABL (Homo sapiens, UniProt P00519); test: as above
T1 construct: purchased Ambit Bioscience (CA, USA), KINOMEscan service
Description: as §3

MAPK = test: as above
Description: as §3

SRC = target: T2, SRC (Homo sapiens, UniProt P12931); test: as above
T2 construct: purchased Ambit Bioscience (CA, USA), KINOMEscan service
Description: as §3

T2 sequence (P12931 whole entry): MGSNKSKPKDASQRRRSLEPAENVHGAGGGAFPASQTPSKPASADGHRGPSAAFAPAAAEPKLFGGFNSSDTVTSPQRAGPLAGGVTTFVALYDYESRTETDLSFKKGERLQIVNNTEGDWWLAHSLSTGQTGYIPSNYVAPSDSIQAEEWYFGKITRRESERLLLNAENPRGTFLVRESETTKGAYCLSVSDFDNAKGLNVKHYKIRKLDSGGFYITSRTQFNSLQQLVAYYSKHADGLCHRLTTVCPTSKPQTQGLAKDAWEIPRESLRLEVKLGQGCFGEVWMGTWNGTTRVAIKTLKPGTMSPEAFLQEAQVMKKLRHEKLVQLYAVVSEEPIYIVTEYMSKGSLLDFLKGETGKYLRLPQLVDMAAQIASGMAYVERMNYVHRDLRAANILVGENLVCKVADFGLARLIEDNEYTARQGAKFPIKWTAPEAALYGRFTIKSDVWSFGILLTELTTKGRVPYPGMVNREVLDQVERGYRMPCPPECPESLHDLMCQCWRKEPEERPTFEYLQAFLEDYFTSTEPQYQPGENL
T1 sequence (P00519 whole entry): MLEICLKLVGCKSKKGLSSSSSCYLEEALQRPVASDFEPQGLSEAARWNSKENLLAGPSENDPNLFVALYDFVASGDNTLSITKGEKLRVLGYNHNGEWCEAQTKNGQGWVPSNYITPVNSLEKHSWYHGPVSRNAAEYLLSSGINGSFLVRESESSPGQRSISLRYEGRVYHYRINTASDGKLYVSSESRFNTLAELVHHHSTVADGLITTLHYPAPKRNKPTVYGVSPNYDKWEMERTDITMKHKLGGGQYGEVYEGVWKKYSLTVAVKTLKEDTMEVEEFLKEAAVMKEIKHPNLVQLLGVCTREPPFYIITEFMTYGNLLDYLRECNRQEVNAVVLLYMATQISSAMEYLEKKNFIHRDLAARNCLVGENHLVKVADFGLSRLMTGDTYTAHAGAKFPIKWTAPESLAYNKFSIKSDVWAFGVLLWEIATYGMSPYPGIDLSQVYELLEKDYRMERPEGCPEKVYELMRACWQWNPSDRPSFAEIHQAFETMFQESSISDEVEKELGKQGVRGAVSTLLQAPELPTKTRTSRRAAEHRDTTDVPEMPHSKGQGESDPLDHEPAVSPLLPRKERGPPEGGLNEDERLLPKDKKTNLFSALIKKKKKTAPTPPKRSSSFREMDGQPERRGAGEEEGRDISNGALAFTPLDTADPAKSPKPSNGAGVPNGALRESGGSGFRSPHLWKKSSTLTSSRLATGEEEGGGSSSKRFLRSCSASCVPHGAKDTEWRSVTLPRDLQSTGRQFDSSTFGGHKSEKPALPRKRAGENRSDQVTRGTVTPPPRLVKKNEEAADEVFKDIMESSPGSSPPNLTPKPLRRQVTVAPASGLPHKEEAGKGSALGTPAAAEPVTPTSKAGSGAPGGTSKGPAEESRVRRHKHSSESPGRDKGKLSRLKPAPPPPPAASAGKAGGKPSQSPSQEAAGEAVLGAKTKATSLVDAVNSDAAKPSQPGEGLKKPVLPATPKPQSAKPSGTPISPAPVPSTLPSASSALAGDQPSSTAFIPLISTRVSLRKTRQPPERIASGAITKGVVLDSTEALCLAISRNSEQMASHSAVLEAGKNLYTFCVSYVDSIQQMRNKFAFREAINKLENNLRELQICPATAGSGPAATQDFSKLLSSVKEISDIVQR

With `Cc1ccc(C(=O)Nc2ccc(CN3CCN(C)CC3)c(C(F)(F)F)c2)cc1C#Cc1cnc2[nH]ncc2c1` [GZD824] the “levels of phosphorylated AKT (Ser473)” value [1] was “reduction”, the “levels of IRS1” value (IRS1) was “reduction” and the “BCL-XL mRNA expression” value [2] was “downregulation”. For the same compound, the “CCKN1A (CDKN1A) mRNA expression” value [2] was “upregulated”, the “CCND1 mRNA expression” value [2] was “downregulation” and the “CDK4 mRNA expression” value [2] was “downregulation”. For the same compound, the “%Ctrl@10nM” value (JAK; JAK, 10 nM, mean of two independent experiments) was 100%, the “%Ctrl@100nM” value (JAK; JAK, 100 nM, mean of two independent experiments) was 100% and the “binding to JAK (in words)” value (JAK; kinase assay) was “does not bind”. The remaining binding at 0.01 µM (ABL; read-out: %Ctrl@10nM) was 2.8%, the remaining binding at 0.1 µM (ABL; read-out: %Ctrl@100nM) was 0.15% and the “%Ctrl@10nM” value (MAPK; MAPK, 10 nM, mean of two independent experiments) was 81%. The “%Ctrl@100nM” value (MAPK; MAPK, 100 nM, mean of two independent experiments) was 81%, the “binding to MAPK (in words)” value (MAPK; kinase assay) was “does not bind” and the remaining binding at 0.01 µM (SRC; SRC, 10 nM, mean of two independent experiments, read-out: %Ctrl@10nM) was 26%. The remaining binding at 0.1 µM (SRC; SRC, 100 nM, mean of two independent experiments, read-out: %Ctrl@100nM) was 0.75% and the “binding to the SRC kinase (in words)” value (SRC; kinase assay) was “high affinity”.
